Measurements published in ChEMBL document CHEMBL3991601, “The target landscape of clinical kinase drugs” (Science, 2017).
Activity calls are given as the source filed them.

What was measured:
[1] = target: Serine/threonine-protein kinase MRCK gamma (Homo sapiens, UniProt Q6DT37)
[2] = target: Ribosomal protein S6 kinase alpha-5 (Homo sapiens, UniProt O75582)
[3] = target: T1, Serine/threonine-protein kinase D2 (Homo sapiens, UniProt Q9BZL6)
T1 sequence (Q9BZL6 whole entry): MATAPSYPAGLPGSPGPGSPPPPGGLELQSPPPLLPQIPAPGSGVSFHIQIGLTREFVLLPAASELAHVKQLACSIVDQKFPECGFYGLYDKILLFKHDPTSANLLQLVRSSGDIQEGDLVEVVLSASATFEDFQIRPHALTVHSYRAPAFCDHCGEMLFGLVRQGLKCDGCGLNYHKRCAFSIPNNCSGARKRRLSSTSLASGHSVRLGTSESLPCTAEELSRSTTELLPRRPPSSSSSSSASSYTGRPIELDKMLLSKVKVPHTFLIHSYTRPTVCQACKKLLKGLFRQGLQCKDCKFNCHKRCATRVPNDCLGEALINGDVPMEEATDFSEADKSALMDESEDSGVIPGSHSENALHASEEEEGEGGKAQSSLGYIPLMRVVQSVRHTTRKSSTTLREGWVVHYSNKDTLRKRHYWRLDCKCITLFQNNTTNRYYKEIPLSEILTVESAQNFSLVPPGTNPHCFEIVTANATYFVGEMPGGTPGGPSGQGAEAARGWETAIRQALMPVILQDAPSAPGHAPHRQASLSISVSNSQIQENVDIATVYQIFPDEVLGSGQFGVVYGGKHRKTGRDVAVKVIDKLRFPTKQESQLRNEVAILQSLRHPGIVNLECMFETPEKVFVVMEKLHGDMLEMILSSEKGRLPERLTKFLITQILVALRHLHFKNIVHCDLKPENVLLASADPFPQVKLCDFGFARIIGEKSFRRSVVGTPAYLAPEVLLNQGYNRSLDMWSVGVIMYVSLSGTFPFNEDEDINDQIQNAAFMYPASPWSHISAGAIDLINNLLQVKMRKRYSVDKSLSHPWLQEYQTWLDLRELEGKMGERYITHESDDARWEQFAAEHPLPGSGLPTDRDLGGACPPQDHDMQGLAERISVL

[4] = target: Calcium/calmodulin-dependent protein kinase type II subunit gamma (Homo sapiens, UniProt Q13555)
Scaffold protein ILK = target: T2, Scaffold protein ILK (Homo sapiens, UniProt Q13418)
T2 sequence (Q13418 whole entry): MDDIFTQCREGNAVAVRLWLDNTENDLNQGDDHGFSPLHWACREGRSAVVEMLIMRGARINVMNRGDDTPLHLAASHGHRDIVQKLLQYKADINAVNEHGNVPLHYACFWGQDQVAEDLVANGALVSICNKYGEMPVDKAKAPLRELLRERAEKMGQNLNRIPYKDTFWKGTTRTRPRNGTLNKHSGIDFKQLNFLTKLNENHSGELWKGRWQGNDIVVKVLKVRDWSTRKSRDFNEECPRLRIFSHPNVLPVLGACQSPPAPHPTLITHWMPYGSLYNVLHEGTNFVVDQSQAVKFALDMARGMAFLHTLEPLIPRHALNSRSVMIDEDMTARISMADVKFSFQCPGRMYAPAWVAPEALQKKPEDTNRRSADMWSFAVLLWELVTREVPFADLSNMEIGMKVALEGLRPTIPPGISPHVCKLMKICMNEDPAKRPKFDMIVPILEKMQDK

[5] = target: Mitogen-activated protein kinase 3 (Homo sapiens, UniProt P27361)
[6] = target: Serine/threonine-protein kinase/endoribonuclease IRE1 (Homo sapiens, UniProt O75460)
Septin-9 = target: T3, Septin-9 (Homo sapiens, UniProt Q9UHD8)
T3 sequence (Q9UHD8 whole entry): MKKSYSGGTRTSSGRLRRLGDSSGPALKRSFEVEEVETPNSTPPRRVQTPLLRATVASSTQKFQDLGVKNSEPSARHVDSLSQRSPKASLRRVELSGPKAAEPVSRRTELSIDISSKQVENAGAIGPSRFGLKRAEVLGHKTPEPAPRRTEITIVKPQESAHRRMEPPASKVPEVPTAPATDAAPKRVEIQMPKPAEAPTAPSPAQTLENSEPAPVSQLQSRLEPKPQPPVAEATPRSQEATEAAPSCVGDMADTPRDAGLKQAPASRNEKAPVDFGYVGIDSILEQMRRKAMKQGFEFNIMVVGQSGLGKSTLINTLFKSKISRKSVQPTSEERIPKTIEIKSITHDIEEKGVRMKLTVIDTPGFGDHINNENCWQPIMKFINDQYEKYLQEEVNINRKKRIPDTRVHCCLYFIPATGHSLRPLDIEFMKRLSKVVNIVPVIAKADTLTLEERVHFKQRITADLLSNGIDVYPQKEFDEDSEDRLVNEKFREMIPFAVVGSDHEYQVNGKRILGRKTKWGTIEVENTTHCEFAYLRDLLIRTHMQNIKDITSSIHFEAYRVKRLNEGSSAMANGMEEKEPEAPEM

[7] = target: T4, Membrane-associated tyrosine- and threonine-specific cdc2-inhibitory kinase (Homo sapiens, UniProt Q99640)
T4 sequence (Q99640 whole entry): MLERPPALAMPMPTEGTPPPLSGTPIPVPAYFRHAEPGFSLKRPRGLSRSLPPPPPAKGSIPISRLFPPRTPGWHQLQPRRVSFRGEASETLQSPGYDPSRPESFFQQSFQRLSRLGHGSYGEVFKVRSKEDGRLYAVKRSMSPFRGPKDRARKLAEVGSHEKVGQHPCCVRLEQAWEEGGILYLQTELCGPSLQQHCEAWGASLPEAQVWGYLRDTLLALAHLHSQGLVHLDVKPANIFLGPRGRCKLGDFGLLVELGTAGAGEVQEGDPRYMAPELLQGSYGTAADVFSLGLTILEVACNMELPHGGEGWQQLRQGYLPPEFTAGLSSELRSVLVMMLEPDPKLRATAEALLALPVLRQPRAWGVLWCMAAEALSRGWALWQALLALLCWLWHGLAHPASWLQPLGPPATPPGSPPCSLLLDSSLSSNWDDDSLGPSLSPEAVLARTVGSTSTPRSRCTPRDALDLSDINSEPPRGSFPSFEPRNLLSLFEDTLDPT

[8] = target: Protein kinase C delta type (Homo sapiens, UniProt Q05655)
Note: in the data inactive means no Kd found up to 30 µM.

Chain of Protein kinase C delta type (Q05655 whole entry): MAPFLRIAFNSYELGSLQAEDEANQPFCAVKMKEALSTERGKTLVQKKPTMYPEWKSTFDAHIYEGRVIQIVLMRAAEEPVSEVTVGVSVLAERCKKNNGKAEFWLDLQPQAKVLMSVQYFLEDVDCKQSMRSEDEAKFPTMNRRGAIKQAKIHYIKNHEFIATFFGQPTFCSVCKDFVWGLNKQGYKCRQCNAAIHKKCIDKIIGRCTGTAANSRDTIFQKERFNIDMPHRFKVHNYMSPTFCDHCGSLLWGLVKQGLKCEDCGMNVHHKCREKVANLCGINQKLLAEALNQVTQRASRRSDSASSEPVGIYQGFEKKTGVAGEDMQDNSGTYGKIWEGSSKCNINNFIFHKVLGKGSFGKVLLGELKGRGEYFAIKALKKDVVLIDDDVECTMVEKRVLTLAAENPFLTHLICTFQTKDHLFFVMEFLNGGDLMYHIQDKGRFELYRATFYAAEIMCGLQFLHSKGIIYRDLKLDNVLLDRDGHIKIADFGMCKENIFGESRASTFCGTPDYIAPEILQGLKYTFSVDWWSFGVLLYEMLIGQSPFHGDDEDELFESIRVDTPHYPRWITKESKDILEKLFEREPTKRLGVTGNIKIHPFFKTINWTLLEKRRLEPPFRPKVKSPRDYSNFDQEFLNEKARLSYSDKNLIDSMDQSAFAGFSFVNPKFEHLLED
Chain of Ribosomal protein S6 kinase alpha-5 (O75582 whole entry): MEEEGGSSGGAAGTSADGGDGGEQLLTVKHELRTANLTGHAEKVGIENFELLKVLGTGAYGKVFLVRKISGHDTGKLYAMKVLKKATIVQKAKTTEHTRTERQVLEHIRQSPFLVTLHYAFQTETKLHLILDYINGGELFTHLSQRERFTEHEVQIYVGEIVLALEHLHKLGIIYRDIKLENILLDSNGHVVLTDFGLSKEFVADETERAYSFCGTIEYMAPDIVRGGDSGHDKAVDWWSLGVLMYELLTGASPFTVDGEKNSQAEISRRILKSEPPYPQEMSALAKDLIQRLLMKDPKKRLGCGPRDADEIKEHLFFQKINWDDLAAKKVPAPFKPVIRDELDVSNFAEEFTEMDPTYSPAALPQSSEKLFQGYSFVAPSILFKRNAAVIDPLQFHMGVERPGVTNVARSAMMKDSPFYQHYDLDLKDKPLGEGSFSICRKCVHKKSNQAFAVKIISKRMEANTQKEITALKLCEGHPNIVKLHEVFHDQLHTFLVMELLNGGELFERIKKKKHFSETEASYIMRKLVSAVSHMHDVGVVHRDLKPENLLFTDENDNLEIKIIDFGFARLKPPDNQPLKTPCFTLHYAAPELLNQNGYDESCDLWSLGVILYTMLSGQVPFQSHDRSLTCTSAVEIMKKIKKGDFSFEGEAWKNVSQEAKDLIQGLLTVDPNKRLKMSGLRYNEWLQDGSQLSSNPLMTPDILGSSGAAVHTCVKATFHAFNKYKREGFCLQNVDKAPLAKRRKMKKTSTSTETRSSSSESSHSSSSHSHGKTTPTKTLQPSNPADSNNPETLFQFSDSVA
Chain of Calcium/calmodulin-dependent protein kinase type II subunit gamma (Q13555 whole entry): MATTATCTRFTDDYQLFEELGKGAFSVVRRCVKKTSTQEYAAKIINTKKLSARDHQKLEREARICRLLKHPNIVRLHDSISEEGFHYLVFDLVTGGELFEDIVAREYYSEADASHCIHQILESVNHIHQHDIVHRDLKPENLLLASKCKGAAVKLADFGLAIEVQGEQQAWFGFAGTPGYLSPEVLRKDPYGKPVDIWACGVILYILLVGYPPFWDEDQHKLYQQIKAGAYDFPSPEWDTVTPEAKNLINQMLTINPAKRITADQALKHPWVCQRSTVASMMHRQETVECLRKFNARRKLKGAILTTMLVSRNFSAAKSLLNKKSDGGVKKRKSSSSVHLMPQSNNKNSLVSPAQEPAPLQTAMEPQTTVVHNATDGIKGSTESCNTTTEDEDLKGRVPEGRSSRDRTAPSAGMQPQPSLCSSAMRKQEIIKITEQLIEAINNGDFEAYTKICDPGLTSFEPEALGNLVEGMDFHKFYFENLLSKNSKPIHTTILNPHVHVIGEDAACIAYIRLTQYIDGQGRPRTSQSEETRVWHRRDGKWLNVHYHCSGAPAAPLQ
Chain of Mitogen-activated protein kinase 3 (P27361 whole entry): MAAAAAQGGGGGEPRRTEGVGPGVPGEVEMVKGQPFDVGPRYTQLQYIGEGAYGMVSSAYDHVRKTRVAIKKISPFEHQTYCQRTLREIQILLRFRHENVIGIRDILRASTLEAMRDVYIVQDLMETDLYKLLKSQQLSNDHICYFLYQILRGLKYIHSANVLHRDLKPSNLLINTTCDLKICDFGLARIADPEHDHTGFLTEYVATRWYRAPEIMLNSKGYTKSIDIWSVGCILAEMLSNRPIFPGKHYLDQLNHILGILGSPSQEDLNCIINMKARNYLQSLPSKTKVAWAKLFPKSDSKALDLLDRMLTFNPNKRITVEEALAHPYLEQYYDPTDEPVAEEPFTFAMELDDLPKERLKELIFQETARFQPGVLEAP
Chain of Serine/threonine-protein kinase/endoribonuclease IRE1 (O75460 whole entry): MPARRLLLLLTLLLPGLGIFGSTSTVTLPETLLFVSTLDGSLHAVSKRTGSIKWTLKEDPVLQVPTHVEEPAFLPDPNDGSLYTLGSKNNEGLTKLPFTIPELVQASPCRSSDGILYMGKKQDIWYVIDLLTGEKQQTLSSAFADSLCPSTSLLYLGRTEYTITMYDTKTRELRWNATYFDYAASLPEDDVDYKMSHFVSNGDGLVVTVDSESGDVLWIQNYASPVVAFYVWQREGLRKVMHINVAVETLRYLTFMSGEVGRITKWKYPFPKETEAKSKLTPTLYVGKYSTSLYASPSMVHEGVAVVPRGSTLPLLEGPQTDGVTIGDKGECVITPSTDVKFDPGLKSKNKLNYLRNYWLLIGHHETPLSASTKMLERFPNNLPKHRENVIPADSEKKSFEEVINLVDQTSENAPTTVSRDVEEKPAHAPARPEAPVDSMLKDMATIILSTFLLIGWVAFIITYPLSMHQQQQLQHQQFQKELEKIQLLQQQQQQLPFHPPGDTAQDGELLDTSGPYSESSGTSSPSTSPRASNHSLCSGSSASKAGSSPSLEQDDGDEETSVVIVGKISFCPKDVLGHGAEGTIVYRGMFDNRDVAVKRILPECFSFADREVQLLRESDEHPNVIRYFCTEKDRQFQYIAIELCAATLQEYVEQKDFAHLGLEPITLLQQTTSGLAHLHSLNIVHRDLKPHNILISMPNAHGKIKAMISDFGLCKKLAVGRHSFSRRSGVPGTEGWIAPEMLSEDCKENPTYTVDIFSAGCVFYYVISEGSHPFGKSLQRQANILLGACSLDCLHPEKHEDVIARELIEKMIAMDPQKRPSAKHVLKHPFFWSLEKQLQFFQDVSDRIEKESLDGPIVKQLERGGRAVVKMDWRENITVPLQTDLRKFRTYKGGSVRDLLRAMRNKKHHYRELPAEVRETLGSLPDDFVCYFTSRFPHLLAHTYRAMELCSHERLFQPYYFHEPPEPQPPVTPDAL
Chain of Serine/threonine-protein kinase MRCK gamma (Q6DT37 whole entry): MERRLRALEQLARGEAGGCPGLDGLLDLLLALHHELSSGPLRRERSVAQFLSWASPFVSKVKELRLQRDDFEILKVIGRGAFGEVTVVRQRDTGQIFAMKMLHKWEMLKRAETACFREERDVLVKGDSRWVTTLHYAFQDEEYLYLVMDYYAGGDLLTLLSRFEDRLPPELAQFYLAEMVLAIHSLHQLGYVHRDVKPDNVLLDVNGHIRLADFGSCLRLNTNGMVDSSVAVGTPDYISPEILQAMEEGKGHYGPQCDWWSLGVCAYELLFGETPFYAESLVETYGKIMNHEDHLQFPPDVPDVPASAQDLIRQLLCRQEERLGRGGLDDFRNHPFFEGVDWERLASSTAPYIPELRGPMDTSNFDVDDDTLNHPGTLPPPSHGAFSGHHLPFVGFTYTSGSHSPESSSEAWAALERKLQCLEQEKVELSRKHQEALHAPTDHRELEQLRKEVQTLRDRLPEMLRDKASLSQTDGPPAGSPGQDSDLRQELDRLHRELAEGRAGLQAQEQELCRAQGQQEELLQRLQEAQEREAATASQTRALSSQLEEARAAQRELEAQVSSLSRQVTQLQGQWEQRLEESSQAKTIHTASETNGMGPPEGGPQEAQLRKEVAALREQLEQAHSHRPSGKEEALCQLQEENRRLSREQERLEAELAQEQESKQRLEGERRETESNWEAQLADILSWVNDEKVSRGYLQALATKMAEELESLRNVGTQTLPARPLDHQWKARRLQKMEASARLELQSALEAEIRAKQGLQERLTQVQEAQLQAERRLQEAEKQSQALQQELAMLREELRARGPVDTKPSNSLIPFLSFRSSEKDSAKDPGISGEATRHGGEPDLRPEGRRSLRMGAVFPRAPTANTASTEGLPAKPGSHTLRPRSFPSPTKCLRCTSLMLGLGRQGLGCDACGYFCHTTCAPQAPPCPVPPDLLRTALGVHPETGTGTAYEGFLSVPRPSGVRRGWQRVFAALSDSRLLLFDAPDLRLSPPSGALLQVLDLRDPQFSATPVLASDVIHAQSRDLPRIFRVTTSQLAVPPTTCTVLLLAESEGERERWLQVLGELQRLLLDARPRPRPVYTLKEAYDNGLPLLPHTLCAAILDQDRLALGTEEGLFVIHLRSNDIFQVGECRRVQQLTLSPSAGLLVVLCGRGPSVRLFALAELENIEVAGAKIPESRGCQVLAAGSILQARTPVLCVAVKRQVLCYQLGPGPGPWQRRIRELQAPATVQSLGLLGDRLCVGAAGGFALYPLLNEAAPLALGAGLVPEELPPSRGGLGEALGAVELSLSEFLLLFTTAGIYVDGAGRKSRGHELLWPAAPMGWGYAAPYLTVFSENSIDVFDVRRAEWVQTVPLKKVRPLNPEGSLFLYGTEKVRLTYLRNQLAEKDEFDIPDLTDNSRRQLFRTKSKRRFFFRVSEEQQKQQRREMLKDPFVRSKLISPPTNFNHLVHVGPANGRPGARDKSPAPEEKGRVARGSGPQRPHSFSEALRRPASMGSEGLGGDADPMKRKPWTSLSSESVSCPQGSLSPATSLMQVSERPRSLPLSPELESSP

Row | SMILES | Kd [1] | Kd [2] | Kd [3] | Kd [4] | Kd (Scaffold protein ILK) | Kd [5] | Kd [6] | Kd (Septin-9) | Kd [7] | Kd [8]
1 | CCc1cc2c(cc1N1CCC(N3CCOCC3)CC1)C(C)(C)c1[nH]c3cc(C#N)ccc3c1C2=O [ALECTINIB] | > 30 µM (inactive) | > 30 µM (inactive) | > 30 µM (inactive) | > 30 µM (inactive) | > 30 µM (inactive) | > 30 µM (inactive) | > 30 µM (inactive) | > 30 µM (inactive) | > 30 µM (inactive) | > 30 µM (inactive)
2 | CNC(=O)c1cccc(-c2ccc3c(N4CCOC[C@@H]4C)nc(N4CCOC[C@@H]4C)nc3n2)c1 [VISTUSERTIB] | > 30 µM (inactive) | > 30 µM (inactive) | > 30 µM (inactive) | > 30 µM (inactive) | > 30 µM (inactive) | > 30 µM (inactive) | > 30 µM (inactive) | > 30 µM (inactive) | > 30 µM (inactive) | > 30 µM (inactive)
3 | CNC(=O)c1cc(COc2nnc(Nc3ccc(Cl)cc3)c3ccoc23)ccn1 [TELATINIB] | > 30 µM (inactive) | > 30 µM (inactive) | > 30 µM (inactive) | > 30 µM (inactive) | 0.032 µM | > 30 µM (inactive) | > 30 µM (inactive) | > 30 µM (inactive) | > 30 µM (inactive) | > 30 µM (inactive)
4 | Cn1c(=O)c(F)c(Nc2ccc(I)cc2F)c2c(=O)n(C[C@@H](O)CO)cnc21 [TAK-733] | > 30 µM (inactive) | > 30 µM (inactive) | > 30 µM (inactive) | > 30 µM (inactive) | > 30 µM (inactive) | > 30 µM (inactive) | > 30 µM (inactive) | > 30 µM (inactive) | > 30 µM (inactive) | > 30 µM (inactive)
5 | Cc1cc(-c2cc(OC(=O)c3ccccc3)ccc2Cl)cc2nnc(Nc3ccc(OCCN4CCCC4)cc3)nc12 [TG100-801] | > 30 µM (inactive) | > 30 µM (inactive) | > 30 µM (inactive) | > 30 µM (inactive) | > 30 µM (inactive) | > 30 µM (inactive) | > 30 µM (inactive) | > 30 µM (inactive) | > 30 µM (inactive) | > 30 µM (inactive)
6 | O=C(NOC[C@H](O)CO)c1ccc(F)c(F)c1Nc1ccc(I)cc1F [MIRDAMETINIB] | > 30 µM (inactive) | > 30 µM (inactive) | > 30 µM (inactive) | > 30 µM (inactive) | > 30 µM (inactive) | > 30 µM (inactive) | > 30 µM (inactive) | > 30 µM (inactive) | > 30 µM (inactive) | > 30 µM (inactive)
7 | Cc1cc(C(=O)Nc2cc(Oc3ccc4nc(NC(=O)C5CC5)cn4n3)ccc2C)n(C)n1 [TAK-593] | > 30 µM (inactive) | > 30 µM (inactive) | > 30 µM (inactive) | > 30 µM (inactive) | > 30 µM (inactive) | > 30 µM (inactive) | > 30 µM (inactive) | > 30 µM (inactive) | > 30 µM (inactive) | > 30 µM (inactive)
8 | NC[C@@](O)(c1ccc(Cl)cc1)c1ccc(-c2cn[nH]c2)cc1 [AT-13148] | > 30 µM (inactive) | > 30 µM (inactive) | > 30 µM (inactive) | > 30 µM (inactive) | > 30 µM (inactive) | > 30 µM (inactive) | > 30 µM (inactive) | > 30 µM (inactive) | > 30 µM (inactive) | 0.044 µM (active)
9 | Cc1c(NC(=O)OC[C@@H]2COCCN2)cn2ncnc(Nc3ccc4c(cnn4Cc4cccc(F)c4)c3)c12 [AC-480] | > 30 µM (inactive) | > 30 µM (inactive) | > 30 µM (inactive) | > 30 µM (inactive) | > 30 µM (inactive) | > 30 µM (inactive) | > 30 µM (inactive) | > 30 µM (inactive) | > 30 µM (inactive) | > 30 µM (inactive)
10 | COc1cc(Nc2ncc(F)c(Nc3ccc4c(n3)N(COP(=O)(O)O)C(=O)C(C)(C)O4)n2)cc(OC)c1OC [FOSTAMATINIB] | > 30 µM (inactive) | > 30 µM (inactive) | > 30 µM (inactive) | > 30 µM (inactive) | > 30 µM (inactive) | > 30 µM (inactive) | > 30 µM (inactive) | > 30 µM (inactive) | > 30 µM (inactive) | > 30 µM (inactive)
11 | C[C@@H]1COC(Nc2ccc3ncnc(Nc4ccc(OCc5nccs5)c(Cl)c4)c3c2)=N1 [VARLITINIB] | > 30 µM (inactive) | > 30 µM (inactive) | > 30 µM (inactive) | > 30 µM (inactive) | > 30 µM (inactive) | > 30 µM (inactive) | > 30 µM (inactive) | > 30 µM (inactive) | > 30 µM (inactive) | > 30 µM (inactive)
12 | COCCN1CCN(Cc2ccc(-c3n[nH]c4c3C(=O)c3c(NC(=O)NN5CCOCC5)cccc3-4)cc2)CC1 [RGB-286638] | > 30 µM (inactive) | > 30 µM (inactive) | 0.195 µM (active) | > 30 µM (inactive) | > 30 µM (inactive) | > 30 µM (inactive) | > 30 µM (inactive) | > 30 µM (inactive) | > 30 µM (inactive) | > 30 µM (inactive)
13 | CNC(=O)c1ccc(Nc2ncc(C(F)(F)F)c(NCc3nccnc3N(C)S(C)(=O)=O)n2)cc1 [DEFACTINIB] | > 30 µM (inactive) | > 30 µM (inactive) | > 30 µM (inactive) | > 30 µM (inactive) | > 30 µM (inactive) | > 30 µM (inactive) | > 30 µM (inactive) | > 30 µM (inactive) | > 30 µM (inactive) | > 30 µM (inactive)
14 | Cc1ccc(C(=O)Nc2ccc(Oc3cc4cnn(C)c4cc3-c3cn[nH]c3)c(F)c2)c(=O)n1-c1ccc(F)cc1 [MERESTINIB] | > 30 µM (inactive) | > 30 µM (inactive) | > 30 µM (inactive) | > 30 µM (inactive) | > 30 µM (inactive) | > 30 µM (inactive) | > 30 µM (inactive) | > 30 µM (inactive) | > 30 µM (inactive) | > 30 µM (inactive)
